Reference: patent publication US9492554B2, “Methods and compositions related to viral inhibition” (Clemson University Research Foundation (CURF), priority 2009, dated 2016)
Like-named read-outs stand apart in the source and are kept apart here.

Experiments:
[1] = test system: HIV; test: Protection from HIV cytopathic effects; assay type: cell-based; conditions: for Maximum protection: maximum protection from HIV cytopathic effects, water control 2%; for concentration at which maximum protection achieved, microM: value in parentheses beside maximum protection
[2] = target: HIV-1 TAR RNA; test: HIV-1 TAR RNA competition FRET binding assay (Tat peptide probe); conditions: 100 nM TAR RNA, 100 nM Tat peptide, 25° C., 60 min
Procedure: Before used, HIV-1 TAR RNA (5′-GGC AGA UCUGAG CCU GGG AGC UCU CUG CC-3′, Thermo Scientific) in 10 μM batch in sterile water was heated to 95° C. for 4.5 min, and then cooled rapidly in ice bath for 5 min. This snap-cooling causes the RNA to adopt the kinetically favored hairpin rather than thermodynamically favored duplexes.
The relative affinity of each polyamine for HIV-1 TAR RNA was determined using Fluorescence Resonance Energy Transfer (FRET)-based competitive binding assay with a fluorescein-labeled HIV-1 Tat peptide as described in the literature. The fluorescence experiments were performed with a Spectra Max Fluorimeter (Molecular Devices) at 25° C., with excitation and emission wavelengths of 495 and 570 nm, respectively. All samples were prepared in 96 well plates in 1×TK buffer (50 mM Tris, 20 mM KCl, pH=7.4) with 0.1% Trixton-100 (Sigma).
To a solution of 100 nM HIV-1 TAR RNA and 100 nM fluorescein-labeled HIV-1 Tat peptide, appropriate concentrations (0 nM to 100 μM) of the antagonists were added at 25° C.; total volume of the incubation solution was 80 μL. After 60 min, fluorescence changes of the sample solution were determined by the Spectra Max Fluorimeter Detector.

[3] = test system: TAR; conditions: ligands to TAR, from UV melting studies
Procedure: The bottom line represents the control which is TAR without any ligands. […] The reactions were done in the presence of 10 mM sodium cacodylate, 0.5 mM EDTA, 0.1 mM MgCl2 pH 7.0. The heating rate was 0.3° C./min.
(§1) UV melting studies of TAR were performed in the presence and absence of various ligands (FIG. 13).

[4] = target: site 1 thymidylate synthetase RNA; conditions: CC bubble of site 1 thymidylate synthetase RNA; read-out: binding constant; cited from earlier work
[5] = test system: cells; test: 5% Toxicity concentration (concentration at which 5% or less cell death is seen)
[6] = test system: TAR RNA; test: ITC titration of TAR RNA with Neomycin; assay type: binding, HIV-1; conditions: 20° C.
[7] = test system: TAR RNA; test: UV melting of TAR RNA in presence of ligands (Tm, ΔTm); assay type: binding, HIV-1; conditions: Melting point stabilization of HIV-TAR RNA by Neo Neo dimers; Table 11
Procedure: The reactions were done in the presence of 10 mM sodium cacodylate, 0.5 mM EDTA, 0.1 mM MgCl2 pH 7.0. The heating rate was 0.3° C./min.
as §1

[8] = test system: TAR RNA; conditions: inhibition of Tat peptide binding to the TAR RNA; cited from earlier work
[9] = target: TAR; conditions: binds TAR; read-out: affinity; cited from earlier work
[10] = target: TAR; conditions: argininamide binding site of TAR; read-out: binding constant; cited from earlier work
[11] = target: HIV-1 RRE RNA; test: HIV-1 RRE RNA competition binding assay (fluorescence polarization, Rev peptide probe); conditions: 100 nM RRE RNA, 10 nM Rev peptide, 25° C., 1 hour; Table 16
Procedure: Before used, HIV-1 RRE RNA (5′-GGUCUGGGCGCAGCGCAAGCUGACGGUACAGGCC-3′, Thermo Scientific) in 10 μM batch in sterile water was heated to 95° C. for 3 min, and then cooled to ambient temperature over 1 hour.
The relative affinity of each compound for HIV-1 RRE RNA was determined using fluorescence polarization-based competitive binding assay with a fluorescein-labeled HIV-1 Rev peptide. The anisotropy experiments were performed with a Spectra Max Fluorimeter (Molecular Devices) at 25° C., with excitation and emission wavelengths of 485 and 525 nm, respectively. All samples were prepared in 96 well plates in binding buffer (30 mM Hepes, 100 mM KCl, 40 mM NaCl, 10 mM NH4OAc, 10 mM Guanidinium Hydrochloride, 2 mM MgCl2, 0.5 mM EDTA, pH 7.4) with 0.01% triton-X100 (Sigma). The binding data reported for each conjugate are the averages of 3˜5 individual measurements.
A solution of 100 nM RRE RNA and 10 nM fluorescein-labeled HIV-1 Rev peptide was incubated at 25° C. After 10 min, appropriate concentrations (0 nM to 500 μM) of the antagonists were added; total volume of the incubation solution was […]. After 1 hour, the amount of the dissociated fluorescent probe was determined by the Spectra Max fluorescence plate reader. The experimental dose-response data for a given antagonist were fit to a sigmoidal dose-response nonlinear regression model on GraphPad Prism 4.0 to afford the IC50 values for each conjugates (Table 16).

| Compound | Maximum protection [1] [%] | concentration at which maximum protection achieved, microM [1] | IC50 ([2]; Table 17) [µM] | Binding Constant [3] [M⁻¹] | IC50 [8] [µM] | also measured |
| --- | --- | --- | --- | --- | --- | --- |
| CN1CCN(c2ccc3[nH]c(-c4ccc5[nH]c(-c6ccc(O)cc6)nc5c4)nc3c2)CC1 [Hoechst 33258] | 2 | (2) microM | 6.6 ± 1.5 | 420000 |  | Kd [4]: < 0.1 µM; 5% Toxicity microM [5]: 18 µM |
| neomycin | 9 | (206) microM | 0.713 ± 0.165 | 170000 | 0.92 ± 0.09 | K [6]: (6.61 ± 0.84) × 10^5; ΔTm [7]: 0.2 °C; Kd [9]: ~6 µM |
| N=C(N)NCCC[C@H](N)C(N)=O [argininamide] |  |  |  |  |  | Kd [10]: ~0.001 µM |
| [H]/N=C(/N)N[C@H]1[C@H](O)[C@@H](O)[C@H](O[C@@H]2O[C@@H](C)[C@](O)(C=O)[C@H]2O[C@@H]2O[C@@H](CO)[C@H](O)[C@@H](O)[C@@H]2NC)[C@@H](N/C(N)=N\[H])[C@@H]1O [DPA 506, streptomycin, reference compound] |  |  |  |  | 9.5 ± 0.8 | IC50 [11]: > 500 µM; IC50 ([2]; Table 18): 17.4 ± 4.3 µM |
